Measurements: patent US20030180295A1, “Angiocidin: a Cys-Ser-Val-Thr-Cys-Gly specific tumor cell adhesion receptor” (Philadelphia Health and Education Corporation, priority 1999, published 2003)
“Also recorded” adds a separate entry of the source.

What was measured:
[1] = system: Bovine aortic endothelial cells (BAEC); assay: Microvessel stability in collagen matrix; format: cell-based; conditions: added after 24 hours of microvessel formation, read after additional 24 hours
Method: An experiment was performed to evaluate the effect of angiocidin on angiogenesis. Bovine aortic endothelial cells (BAEC) were plated on a collagen matrix. Next, the cells were over-layered with collagen. Angiocidin (37 μg/ml) was added on top of the cells in the treatment plate, and the control plate only received buffer. After 24 hours, phase contrast photomicrographs (200×) were taken. In the control plate, the BAEC cells rearranged themselves into a network of microvessels. […] The experiment in this example was performed as in Example 16, however, no treatment was given to the cells initially. After 24 hours, microvessels formed in both samples, and looked similar to the control plate in FIG. 19. Buffer and angiocidin were then added to the control and treatment plates, respectively. After an additional 24 hours, Hoffman interference photomicrographs were taken. Here, the control was not affected.

[2] = system: Bovine aortic endothelial cells (BAEC); assay: ALAMAR BLUE cell viability assay; format: cell-based
Method: (§1) Bovine aortic endothelial cells (BAEC), human umbilical vein endothelial cells (HUVEC), fibroblast cells, A549 human lung carcinoma cells (A549), MDA-MB231 human breast carcinoma cells (MB231), MCF7 human breast carcinoma cells (MCF7) were treated with 37 μg/ml of receptor, or buffer alone, for 24 hours. Viability of the cells was measured using the ALAMAR BLUE™ assay, which measures the capacity of cells to metabolize the ALAMAR BLUE™ dye. The ALAMAR BLUE™ assay (available from Biosource International, Camarillo, Calif.) quantitatively measures the proliferation of cell lines and can establish the relative cytotoxicity of chemical agents. The assay incorporates a fluorometric/colorimetric growth indicator based on detection of metabolic activity. The system incorporates an oxidation-reduction (redox) indicator that both fluoresces and changes color in response to chemical reduction of growth medium resulting from cell growth. This causes the redox indicator to change from its oxidized, non-fluorescent, blue form to its reduced, fluorescent, red form. Data can be collected using either fluorescence-based instrumentation (530-560 nm excitation wavelength and 590 nm emission wavelength) or absorbance-based instrumentation (570 nm and 600 nm).
BAEC and BSM cells were treated with increasing concentrations of angiocidin (0, 0.625, 1.25, 2.5, 5, 15, 26 and 37 μg/ml) for 24 hours. Cell viability was measured using the ALAMAR BLUE Tm assay. […] In contrast, BSM cells are unaffected.
The methods of Example 21 were followed, except BAEC cells were used. Additionally, TSP-1 was added at both 20 μg/ml and 5 μg/ml.
As discussed in Example 19 above, angiocidin was added to BAEC cells. Fragments of angiocidin were added as well. […] GST was used as a negative control. V36-R42, the active site of the antisecretory factor, had no effect, illustrating that angiocidin plays a different role from antisecretory factor.
Bovine aortic endothelial cells (BAEC) were cultured overnight in serum-free media containing either 37 μg/ml his-tagged angiocidin or his-tagged GST. Both angiocidin and GST were expressed in bacteria transformed with the pTrcHisA expression vector and purified on nickel affinity chromatography under non-denaturing conditions. Viability was measured by the ALAMAR BLUE™ assay.
This study examined the effect of anti-angiocidin antibody on angiocidin-mediated inhibition of BAEC viability. BAEC were cultured overnight in serum-free media containing either 5 μg/ml angiocidin, 5 μg/ml angiocidin plus 100 μg/ml control IgG, or 5 μg/ml angiocidin plus 100 μg/ml anti-angiocidin IgG. Viability was measured using the ALAMAR BLUE™ assay, described above.
The endothelial cells (BAEC) were incubated overnight 37 μg/ml of the angiocidin, fragments, and GST. Viability was measured using the ALAMAR BLUE™ assay.

[3] = system: Bovine Smooth Muscle Cells (BSM); assay: ALAMAR BLUE cell viability assay; format: cell-based; conditions: 0 to 37 μg/ml, 24 hours
Method: as §1, with “This causes the redox indicator to change from its oxidized, non-fluorescent, blue form to its reduced, fluorescent, red form.” left out
BAEC and BSM cells were treated with increasing concentrations of angiocidin (0, 0.625, 1.25, 2.5, 5, 15, 26 and 37 μg/ml) for 24 hours. Cell viability was measured using the ALAMAR BLUE Tm assay. […]

[4] = system: Human Aortic Endothelial Cells (HAEC); assay: ALAMAR BLUE cell viability assay; format: cell-based; conditions: Example 26
BAEC = assay: Adhesion of BAEC to a substrate; format: cell-based, bovine; conditions: cells pretreated with 37 μg/ml, 30 minutes
Method: This example evaluates the effect of angiocidin on adhesion of BAEC to a substrate. Cells in the treatment group were pretreated with angiocidin (37 μg/ml). Cells in the control group were not pretreated. Cells (50,000) were immediately plated on microtiter wells coated with 2 μg of either fibronectin, TSP-1, or BSA. Fibronectin is a strong extracellular matrix protein that attracts BAEC and serves as a positive control, whereas BSA is not an adhesion protein and serves as a negative control. After 30 minutes non-adherent cells were aspirated, wells washed with PBS, fixed with 2.5% glutaraldehyde, stained with 2% Giemsa, and the number of adherent cells per 1 mm^2 counted.

Lewis lung carcinoma = assay: Growth of Lewis lung carcinoma flank tumors; format: in vivo, mice; conditions: 50 μg IV on days 1, 3, 5
Source text: Ten animals were subcutaneously injected in the flank with […] Lewis lung carcinoma cells. Evaluation of flank tumors is a well recognized model for angiogenesis, because flank tumors are highly dependent on angiogenesis. O'Reilly, M. S., Angiostatin: A Novel Angiogenesis Inhibitor that Mediates the Suppression of Metastasis by a Lewis Lung Carcinoma, Cell 79: 315-28 (1994). After 9 days when a palpable tumor developed, mice were divided into two groups of 5 animals per group. One group of 5 mice were treated with an IV injection of 50 μg of angiocidin in Hepes buffered saline. The control group was treated with Hepes buffered saline. Mice were treated on days 1, 3, and 5 after the groups were divided, and sacrificed on day 7.
The tumors were embedded in paraffin and cut into 5 micron sections. The sections were stained with hemotoxylin and eosin. Hemotoxylin stains DNA blue, and eosin stains protein pink. FIG. 36 illustrates the difference between control (panels A and C) and angiocidin (panels B and D) treated cells. Panels A and B are at a magnification of 400×under a light microscope and panels C and D are at a magnification of 200×under a light microscope.

TSP-1 = TSP-1 (Homo sapiens, UniProt P07996); assay: Optical binding of angiocidin fragments to TSP-1 derivatized cuvette; conditions: test proteins at 10 nm in PBS buffer
TSP-1, sequence (P07996 19-1170): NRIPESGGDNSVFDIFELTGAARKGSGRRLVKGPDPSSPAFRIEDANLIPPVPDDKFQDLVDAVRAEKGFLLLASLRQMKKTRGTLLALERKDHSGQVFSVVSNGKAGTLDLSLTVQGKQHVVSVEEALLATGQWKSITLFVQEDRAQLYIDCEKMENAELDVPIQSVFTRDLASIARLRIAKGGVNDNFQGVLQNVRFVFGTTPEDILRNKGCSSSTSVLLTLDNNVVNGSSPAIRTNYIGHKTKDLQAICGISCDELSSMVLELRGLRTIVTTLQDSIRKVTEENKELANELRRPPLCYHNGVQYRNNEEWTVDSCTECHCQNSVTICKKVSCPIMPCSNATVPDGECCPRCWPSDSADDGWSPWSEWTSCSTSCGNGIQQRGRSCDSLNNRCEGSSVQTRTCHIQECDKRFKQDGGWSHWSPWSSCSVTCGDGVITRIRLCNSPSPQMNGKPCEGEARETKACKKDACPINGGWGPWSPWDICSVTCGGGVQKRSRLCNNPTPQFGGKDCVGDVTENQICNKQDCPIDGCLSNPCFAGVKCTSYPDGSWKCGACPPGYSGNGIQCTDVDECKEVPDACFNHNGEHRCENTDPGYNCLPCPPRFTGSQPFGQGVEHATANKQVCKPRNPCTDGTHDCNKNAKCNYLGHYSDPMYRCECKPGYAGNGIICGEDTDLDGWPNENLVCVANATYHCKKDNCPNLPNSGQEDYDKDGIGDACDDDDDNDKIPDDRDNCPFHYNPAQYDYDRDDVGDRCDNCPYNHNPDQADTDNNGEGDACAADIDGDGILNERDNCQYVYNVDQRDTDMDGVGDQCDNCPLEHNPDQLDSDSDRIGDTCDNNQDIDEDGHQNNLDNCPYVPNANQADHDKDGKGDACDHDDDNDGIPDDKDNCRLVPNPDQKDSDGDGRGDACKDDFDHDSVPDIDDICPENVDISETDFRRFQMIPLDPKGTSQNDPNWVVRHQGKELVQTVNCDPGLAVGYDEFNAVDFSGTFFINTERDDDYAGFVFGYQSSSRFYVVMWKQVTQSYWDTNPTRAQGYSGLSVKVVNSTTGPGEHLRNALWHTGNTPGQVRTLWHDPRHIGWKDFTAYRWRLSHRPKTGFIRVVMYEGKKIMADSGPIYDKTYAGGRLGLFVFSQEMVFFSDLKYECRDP
Method: This study examines the amino terminal (Met1-Lys132) and carboxy terminal (IIe248-Lys380) portions of angiocidin (SEQ ID NOS: 24 and 25, respectively). The binding of undenatured recombinant angiocidin fragments was compared to full length angiocidin. GST was used as a negative control. Binding was evaluated using an optical binding method that uses a cuvette to which TSP-1 is covalently coupled. A laser beam was used to detect whether the test protein (fragments, angiocidin, or GST) is bound to the TSP-1 derivatized cuvette surface. The cuvette was derivatized with 1 μg of TSP-1. The cuvette surfaces were blocked with a 1% BSA solution to prevent nonspecific binding. The test proteins were added at a concentration of […] in a PBS buffer.

Substance: angiocidin: Cys-Ser-Val-Thr-Cys-Gly (SEQ ID NO: 1)-specific thrombospondin (TSP-1) receptor protein; recombinant form of SEQ ID NO: 2 used in the Examples
- stability of formed microvessels [1]: disrupted the microvessels that had already formed
- cell viability ([2]; 0 to 37 μg/ml, 24 hours): dose dependent inhibition of BAEC cell viability; also recorded: decreases viability of BAEC cells
- decrease of cell viability ([2]; 37 μg/ml, 24 hours): 70-80%
- cell viability, angiocidin and fragments ([2]; Example 27, FIG. 34): inhibited cell viability
- cell viability, his-tagged proteins ([2]; overnight, serum-free media, purified under non-denaturing conditions): dose-dependent effect on cell viability
- cell viability [3]: unaffected
- cell viability [4]: negative effect on the viability of both cell lines
- adhesion of BAEC (BAEC; TSP-1 coated wells): significantly reduced the adhesion of BAEC to the TSP-1 coated plates
- adhesion of BAEC (BAEC; fibronectin coated wells): remained the same
- tumor histology (hemotoxylin and eosin) (Lewis lung carcinoma): significant necrosis and cell death
- tumor growth (relative tumor volumes) (Lewis lung carcinoma; 7 day treatment period): grew only slightly and at a linear rate
- flank tumor size (Lewis lung carcinoma; sacrificed day 7): much smaller than the control mice
- binding to TSP-1 derivatized cuvette (TSP-1): show very similar binding at the nano molar range
